Legend:
caspase-9 in A375 cells = assay: Caspase-9 fluorimetric activity assay in cell lysates; assay type: cell-based, human; conditions: 10 µM, 24 h
Experimental: (§1) The caspase-3 and caspase-9 enzymatic activity was measured by using caspase-3 and -9 fluorimetric assay kits, respectively, according to the manufacturer’s protocol. Briefly, cells were seeded into 75 cm^2 plates (2 × 10^6 cells/plate) and after 24 h treated with 4a or 0.5% (v/v) DMSO for 24 h. At the end of incubation, cells were collected, washed with phosphate-buffered saline constituted by 10 mM Na2HPO4, 2 mM KH2PO4, pH 7.4, supplemented with 137 mM NaCl and 2.7 mM KCl (PBS), and finally lysed at 4 °C in the cell lysis buffer. Cell lysates were incubated with 50 µM DEVD-AFC or LEHD-AFC substrates at 37 °C for 2 h, to detect caspase-3 or caspase-9 activity, respectively, using a Cary Eclipse spectrofluorimeter. Excitation and emission wavelengths were set at 400 nm and 505 nm, respectively; both excitation and emission slits were set at 10 nm.

caspase-9 in A2058 cells = assay: as above; assay type: cell-based, human; conditions: 10 µM, 24 h
Experimental: as §1

**Q.** `CCOC(=O)c1cccc(Nc2cc(OC)cc3ccccc23)c1` [4a] was tested. Which “enzymatic activity of caspase-9” value (caspase-9 in A375 cells) did it give?
**A.** Its value is “statistically significant increase”.

**Q.** And the “enzymatic activity of caspase-9” value (caspase-9 in A2058 cells)?
**A.** The value was “statistically significant increase”.

Reference: article PMC7580834, “Inhibition mechanism of naphthylphenylamine derivatives acting on the CDC25B dual phosphatase and analysis of the molecular processes involved in the high cytotoxicity exerted by one selected derivative in melanoma cells” (Journal of Enzyme Inhibition and Medicinal Chemistry, 2020)
